Earlier results on two compounds are cited in patent US10434213B2, “Controlled delivery system” (Wake Forest University Health Sciences, priority 2010, dated 2019).

Values after ≈ are worked out from the molar mass of the structure shown.

One data set concerns bone marrow. The following applies: White and Olden 1991.
Data set [1] has as its system IL-1, IL-2, TNF, GM-CSF and interferons. The following applies: Newton 1989; Olden 1991.
A further data set relates to tumor cells. The following applies: in vitro.
The subject of data set [2] is colon cancer and melanoma cancers. The settings on record: combined with interferon, in vivo.
In a further data set the test system is S. aureus 29213. The settings on record: reported value.

With `O[C@H]1[C@H]2[C@H](O)CCCN2C[C@H]1O` [Swainsonine], the Bone marrow proliferation entry in the data set on bone marrow is recorded as “capacity to stimulate bone marrow proliferation”. Also, the “Production of multiple cytokines” value in data set [1] is “stimulates”. For the same compound, the “B- and T-cell immunity, natural killer T-cell and macrophage-induced destruction of tumor cells” value with tumor cells is listed as “induces”. The Anti-tumor activity result in data set [2] is “direct anti-tumor activity”.
Regarding `O=C(O)c1cn(C2CC2)c2cc(N3CCNCC3)c(F)cc2c1=O` [ciprofloxacin], in the data set with S. aureus 29213, the “Minimum inhibitory concentration (MIC)” value is 0.25 µg/mL (≈ 0.754 µM).
